Data: PubChem BioAssay (NCI)
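Abbreviation: GI50, concentration required for 50% inhibition of growth. TGI marks complete inhibition of growth.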

Experiments:
Test in all cases: NCI tumour cell line growth inhibition, 384-well format
OVCAR-8 ovarian = tested on: OVCAR-8 ovarian
LOX IMVI melanoma = tested on: LOX IMVI melanoma
SF-268 CNS = tested on: SF-268 CNS
K-562 leukemia = tested on: K-562 leukemia
MDA-MB-435 melanoma = tested on: MDA-MB-435 melanoma
PC-3 prostate = tested on: PC-3 prostate
T-47D breast = tested on: T-47D breast
SK-OV-3 ovarian = tested on: SK-OV-3 ovarian
UACC-257 melanoma = tested on: UACC-257 melanoma
UO-31 renal = tested on: UO-31 renal
MCF7 breast = tested on: MCF7 breast
SK-MEL-28 melanoma = tested on: SK-MEL-28 melanoma
SF-295 CNS = tested on: SF-295 CNS
SK-MEL-5 melanoma = tested on: SK-MEL-5 melanoma
SW-620 colon = tested on: SW-620 colon
BT-549 breast = tested on: BT-549 breast
M14 melanoma = tested on: M14 melanoma
EKVX NSCLC = tested on: EKVX NSCLC
HCT-116 colon = tested on: HCT-116 colon
NCI-H322M lung = tested on: NCI-H322M lung
OVCAR-5 ovarian = tested on: OVCAR-5 ovarian
CAKI-1 renal = tested on: CAKI-1 renal
HOP-62 NSCLC = tested on: HOP-62 NSCLC
HL-60(TB) leukemia = tested on: HL-60(TB) leukemia
HS 578T breast = tested on: HS 578T breast
U251 glioblastoma = tested on: U251 glioblastoma
OVCAR-3 ovarian = tested on: OVCAR-3 ovarian
SF-539 CNS = tested on: SF-539 CNS
HCC-2998 colon = tested on: HCC-2998 colon
COLO 205 colon = tested on: COLO 205 colon
RPMI-8226 leukemia = tested on: RPMI-8226 leukemia
CCRF-CEM leukemia = tested on: CCRF-CEM leukemia
NCI-H460 NSCLC = tested on: NCI-H460 NSCLC
NCI/ADR-RES ovarian = tested on: NCI/ADR-RES ovarian
MALME-3M melanoma = tested on: MALME-3M melanoma
A498 renal = tested on: A498 renal
DU-145 prostate = tested on: DU-145 prostate
KM12 colon = tested on: KM12 colon
MDA-MB-231 breast = tested on: MDA-MB-231 breast
SNB-19 CNS = tested on: SNB-19 CNS
MDA-MB-468 breast = tested on: MDA-MB-468 breast
HT29 colon = tested on: HT29 colon
MOLT-4 leukemia = tested on: MOLT-4 leukemia
ACHN renal = tested on: ACHN renal
SN12C renal = tested on: SN12C renal
HOP-92 NSCLC = tested on: HOP-92 NSCLC
NCI-H23 lung = tested on: NCI-H23 lung
SR leukemia = tested on: SR leukemia
NCI-H522 lung = tested on: NCI-H522 lung
HCT-15 colon = tested on: HCT-15 colon
786-0 renal = tested on: 786-0 renal
A549 NSCLC = tested on: A549 NSCLC
OVCAR-4 ovarian = tested on: OVCAR-4 ovarian
IGROV1 ovarian = tested on: IGROV1 ovarian
RXF 393 renal = tested on: RXF 393 renal
TK-10 renal = tested on: TK-10 renal
NCI-H226 lung = tested on: NCI-H226 lung
SNB-75 CNS = tested on: SNB-75 CNS

## COC[C@H]1OC(=O)c2coc3c2[C@@]1(C)C1=C(C3=O)[C@@H]2CCC(=O)[C@@]2(C)C[C@H]1OC(C)=O
OVCAR-8 ovarian
  GI50: 14.7 µM
  TGI: > 100 µM
LOX IMVI melanoma
  GI50: 21.1 µM
  TGI: > 100 µM
SF-268 CNS
  GI50: 4.4 µM
  TGI: 67.9 µM
K-562 leukemia
  GI50: 71.9 µM
  TGI: > 100 µM
MDA-MB-435 melanoma
  GI50: 24.7 µM
  TGI: > 100 µM
PC-3 prostate
  GI50: 1.44 µM
  TGI: > 100 µM
T-47D breast
  GI50: 4.32 µM
  TGI: 60.3 µM
SK-OV-3 ovarian
  GI50: 8.24 µM
  TGI: > 100 µM
UACC-257 melanoma
  GI50: 13.6 µM
  TGI: > 100 µM
UO-31 renal
  GI50: 3.33 µM
  TGI: > 100 µM
MCF7 breast
  GI50: 1.34 µM
  TGI: > 100 µM
SK-MEL-28 melanoma
  GI50: 9.73 µM
  TGI: > 100 µM
SF-295 CNS
  GI50: 7.25 µM
  TGI: > 100 µM
SK-MEL-5 melanoma
  GI50: 4.21 µM
  TGI: 27.9 µM
SW-620 colon
  GI50: 28.8 µM
  TGI: > 100 µM
BT-549 breast
  GI50: 3.31 µM
  TGI: 42.8 µM
M14 melanoma
  GI50: 18.2 µM
  TGI: > 100 µM
EKVX NSCLC
  GI50: 5.6 µM
  TGI: > 100 µM
HCT-116 colon
  GI50: 16.8 µM
  TGI: > 100 µM
NCI-H322M lung
  GI50: 6.91 µM
  TGI: > 100 µM
OVCAR-5 ovarian
  GI50: 15.4 µM
  TGI: > 100 µM
CAKI-1 renal
  GI50: 7.96 µM
  TGI: > 100 µM
HOP-62 NSCLC
  GI50: 10.9 µM
  TGI: > 100 µM
HL-60(TB) leukemia
  GI50: 0.975 µM
  TGI: 2.74 µM
HS 578T breast
  GI50: 1.6 µM
  TGI: 12.8 µM
U251 glioblastoma
  GI50: 67.4 µM
  TGI: > 100 µM
OVCAR-3 ovarian
  GI50: 2.74 µM
  TGI: 32.1 µM
SF-539 CNS
  GI50: 22.5 µM
  TGI: > 100 µM
HCC-2998 colon
  GI50: 3.91 µM
  TGI: 44.6 µM
COLO 205 colon
  GI50: 26.7 µM
  TGI: > 100 µM
RPMI-8226 leukemia
  GI50: 2.39 µM
  TGI: 9.89 µM
CCRF-CEM leukemia
  GI50: 7.05 µM
  TGI: 30.6 µM
NCI-H460 NSCLC
  GI50: 7.17 µM
  TGI: > 100 µM
NCI/ADR-RES ovarian
  GI50: 25 µM
  TGI: > 100 µM
MALME-3M melanoma
  GI50: 3.9 µM
  TGI: 42.4 µM
A498 renal
  GI50: 4.52 µM
  TGI: 54.3 µM
DU-145 prostate
  GI50: 25.2 µM
  TGI: > 100 µM
KM12 colon
  GI50: 15.4 µM
  TGI: > 100 µM
MDA-MB-231 breast
  GI50: 17.6 µM
  TGI: > 100 µM
SNB-19 CNS
  GI50: 50.2 µM
  TGI: > 100 µM
MDA-MB-468 breast
  GI50: 1.46 µM
  TGI: 7.84 µM
HT29 colon
  GI50: 7.88 µM
  TGI: > 100 µM
MOLT-4 leukemia
  GI50: 2.3 µM
  TGI: 13.6 µM
ACHN renal
  GI50: 7.99 µM
  TGI: > 100 µM
SN12C renal
  GI50: 11 µM
  TGI: > 100 µM
HOP-92 NSCLC
  GI50: 6.12 µM
  TGI: > 100 µM
NCI-H23 lung
  GI50: 22.1 µM
  TGI: > 100 µM
SR leukemia
  GI50: 1.28 µM
  TGI: 4.28 µM
NCI-H522 lung
  GI50: 20.3 µM
  TGI: > 100 µM
HCT-15 colon
  GI50: 11.4 µM
  TGI: > 100 µM
786-0 renal
  GI50: 26.3 µM
  TGI: > 100 µM
A549 NSCLC
  GI50: 7.24 µM
  TGI: > 100 µM
OVCAR-4 ovarian
  GI50: 2.36 µM
  TGI: > 100 µM
IGROV1 ovarian
  GI50: 1.18 µM
  TGI: 11.3 µM
RXF 393 renal
  GI50: 0.281 µM
  TGI: 1.82 µM
TK-10 renal
  GI50: 12 µM
  TGI: > 100 µM
NCI-H226 lung
  GI50: 12.5 µM
  TGI: > 100 µM
SNB-75 CNS
  GI50: 1.34 µM
  TGI: 11.7 µM
